Test results: BindingDB's records for doi:10.7270/Q2125R2H (University of Pittsburgh, 2007)

Target: T1, M-phase inducer phosphatase 2 (Homo sapiens, UniProt P30305)
T1 sequence (P30305 whole entry): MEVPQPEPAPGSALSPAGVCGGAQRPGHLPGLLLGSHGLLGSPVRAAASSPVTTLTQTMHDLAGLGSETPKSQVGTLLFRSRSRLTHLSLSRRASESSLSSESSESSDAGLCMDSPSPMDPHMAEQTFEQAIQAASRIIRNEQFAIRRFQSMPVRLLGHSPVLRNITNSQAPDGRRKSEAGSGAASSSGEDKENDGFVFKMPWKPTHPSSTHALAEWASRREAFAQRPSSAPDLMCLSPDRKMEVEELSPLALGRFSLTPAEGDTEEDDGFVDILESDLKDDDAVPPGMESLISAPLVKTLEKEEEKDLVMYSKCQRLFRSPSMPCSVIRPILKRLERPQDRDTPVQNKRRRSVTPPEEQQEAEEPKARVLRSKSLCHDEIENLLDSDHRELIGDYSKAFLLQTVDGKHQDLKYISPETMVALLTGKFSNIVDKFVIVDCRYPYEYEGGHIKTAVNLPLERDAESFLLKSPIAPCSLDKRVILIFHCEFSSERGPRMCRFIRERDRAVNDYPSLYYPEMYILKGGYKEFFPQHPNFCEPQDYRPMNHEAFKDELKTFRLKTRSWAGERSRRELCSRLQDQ
Assay: inhibition of Cdc25B dual-specificity phosphatase – biochemical, probe assessment, dose response (AID 676)

Row | Compound | IC50 [µM]
1 | COCCCn1c(N)c(C(=O)NCCC(C)C)c2nc3ccccc3nc21 [MLS000041744] | > 50
2 | Cc1cccc(NC(=O)c2cc(NC(=O)C3CCCCC3C(=O)O)ccc2N2CCCCC2)c1 (stereo not drawn) [2-({[3-{[(3-methylphenyl)amino]carbonyl}-4-(1-piperidinyl)phenyl]amino}carbonyl)cyclohexanecarboxylic acid] | > 50
3 | CCOc1ccc2noc3c2c1C(=O)c1ccccc1-3 [MLS000106837] | > 50
4 | CCCSc1nnc(NC(=O)c2sc3nc(-c4cccs4)ccc3c2N)s1 [3-amino-N-(5-propylsulfanyl-1,3,4-thiadiazol-2-yl)-6-thiophen-2-ylthieno[2,3-b]pyridine-2-carboxamide] | > 50
5 | CCc1ccc(NC(=O)CSc2nc3ccccc3c(=O)n2CCN2CCOCC2)cc1 [MLS000095236] | > 50
6 | O=C(c1cccs1)c1no[n+]([O-])c1C(=O)c1cccs1 [(5-oxidanidyl-4-thiophen-2-ylcarbonyl-1,2,5-oxadiazol-5-ium-3-yl)-thiophen-2-yl-methanone] | > 50
7 | COc1ccc2noc3c2c1C(=O)c1ccccc1-3 [MLS000106874] | > 50
8 | COc1ccc(Cn2c(C)nc3c(c2=O)c2nc4ccccc4nc2n3Cc2ccco2)cc1 [MLS000079944] | 46.8
9 | CCn1nc(-c2ccccc2)nc2c(=O)n(C)c(=O)nc1-2 [1-Ethyl-6-methyl-3-phenyl-1H-pyrimido[5,4-e][1,2,4]triazine-5,7-dione] | 0.447
10 | CC(C)Cn1c(N)c(C(=O)COC(=O)c2cc(-c3ccco3)nc3ccccc23)c(=O)n(C)c1=O [2-(2-furanyl)-4-quinolinecarboxylic acid [2-[4-amino-1-methyl-3-(2-methylpropyl)-2,6-dioxo-5-pyrimidinyl]-2-oxoethyl] ester] | 46.6
11 | COC(=O)c1ccccc1NC(=O)CN1C(=O)C2CCCN2c2ncc(Cl)cc21 (stereo not drawn) [MLS000094302] | > 50
12 | CCn1c(SCC(=O)Nc2nc3ccc(OC)cc3s2)nc2c1c(=O)n(C)c(=O)n2C [2-(7-Ethyl-1,3-dimethyl-2,6-dioxo-2,3,6,7-tetrahydro-1H-purin-8-ylsulfanyl)-N-(6-methoxy-benzothiazol-2-yl)-acetamide] | > 50
13 | Cc1cc(NC(=O)c2ccc(S(=O)(=O)N3CCCC3)cc2)nc2c1c(=O)oc1ccccc12 [MLS000091355] | > 50
14 | Cc1ccc(/C=C/C2=Cc3c(sc(NC(=O)CSc4nnc(N)[nH]4)c3C#N)C(C)(C)C2)o1 [2-[(5-azanyl-1H-1,2,4-triazol-3-yl)sulfanyl]-N-[3-cyano-7,7-dimethyl-5-[(E)-2-(5-methylfuran-2-yl)ethenyl]-6H-1-benzothiophen-2-yl]ethanamide] | 46.9
15 | CCOc1cc(/C=C(/C#N)c2ccc(F)cc2)ccc1OCc1ccc(C(=O)O)o1 [5-[[4-[(E)-2-cyano-2-(4-fluorophenyl)ethenyl]-2-ethoxyphenoxy]methyl]furan-2-carboxylic acid] | > 50
16 | CCOc1ccc(-c2cc3nc(C4CCN(C(=O)OC(C)(C)C)CC4)c(C(=O)O)cn3n2)cc1 [2-(4-ethoxyphenyl)-5-[1-[(2-methylpropan-2-yl)oxy-oxomethyl]-4-piperidinyl]-6-pyrazolo[1,5-a]pyrimidinecarboxylic acid] | > 50
17 | CCn1nc(-c2cccs2)nc2c(=O)n(C)c(=O)nc1-2 [1-ethyl-6-methyl-3-thiophen-2-yl-pyrimido[5,4-e][1,2,4]triazine-5,7-dione] | 0.552
18 | Cc1cccc(N2CCN(C(=O)Cc3c(C(=O)O)[nH]c4ccc(Cl)cc34)CC2)c1C [5-chloranyl-3-[2-[4-(2,3-dimethylphenyl)piperazin-1-yl]-2-oxidanylidene-ethyl]-1H-indole-2-carboxylic acid] | > 50
19 | O=C1Nc2ccccc2SC(c2ccccc2)C1O (stereo not drawn) [3-hydroxy-2-phenyl-2,3-dihydro-1,5-benzothiazepin-4(5H)-one] | > 50
20 | CC(C)Sc1nc2sc3c(c2c2nnc(SCC(=O)NCc4ccco4)n12)CCCC3 [MLS000082957] | > 50
21 | Cn1ncnc2c(=O)n(C)c(=O)nc1-2 | 0.396
22 | O=C1C=Cc2ccccc2C1=O [1,2-dihydronaphthalene-1,2-dione] | 19
23 | CC1=C(/C=C/C(C)=C/C=C/C(C)=C/C(=O)O)C(C)(C)CCC1 [ALL-TRANS-RETINOIC ACID] | > 50
24 | CCCCC[C@H](O)C=C[C@H]1C=CC(=O)[C@@H]1C/C=C\CCCC(=O)O [(Z)-7-[(1R,5S)-2-oxidanylidene-5-[(E,3S)-3-oxidanyloct-1-enyl]cyclopent-3-en-1-yl]hept-5-enoic acid] | > 50
25 | Cc1cc(C)n2c(SCC(=O)N3CCN(S(=O)(=O)c4ccc(Cl)cc4)CC3)nnc2n1 [1-[4-(4-chlorophenyl)sulfonyl-1-piperazinyl]-2-[(5,7-dimethyl-[1,2,4]triazolo[4,3-a]pyrimidin-3-yl)thio]ethanone] | > 50
26 | Cc1ccc(C)n1-c1cccc(C(=O)O)c1 | > 50
27 | COc1ccc(-c2cc3nc(C4CCN(C(=O)OC(C)(C)C)CC4)c(C(=O)O)cn3n2)cc1 [2-(4-methoxyphenyl)-5-[1-[(2-methylpropan-2-yl)oxy-oxomethyl]-4-piperidinyl]-6-pyrazolo[1,5-a]pyrimidinecarboxylic acid] | > 50
28 | [O-]/[N+](=C\c1ccncc1)c1ccccc1 | > 50
29 | CCCCCNC(=O)c1ccc2c(=O)[nH]c3c(C(=O)NCC4CCCO4)sc(=S)n3c2c1 (stereo not drawn) [5-oxo-N3-(2-oxolanylmethyl)-N8-pentyl-1-sulfanylidene-4H-thiazolo[3,4-a]quinazoline-3,8-dicarboxamide] | > 50
30 | FC(F)(F)c1ccc(N2CCOCC2)c(Nc2nc3ccccc3n3cnnc23)c1 [MLS000093276] | > 50

Continued by falling IC50, values first:

Row | IC50 [µM] | Compound
31 | 46.1 | CCn1c(SCC(=O)Nc2ccc3c(c2)c2ccccc2n3CC)nnc1-c1ccco1 [MLS000050867]
32 | 35.8 | Cc1ccc(-c2csc(NC(=O)c3ccno3)n2)cc1 [MLS000081820]
33 | 35.6 | O=C(Nc1ccccc1)c1ccc2nc(-c3ccco3)c(-c3ccco3)nc2c1 [2,3-di-2-furyl-N-phenyl-6-quinoxalinecarboxamide]
34 | 31.5 | CCCCn1c(NC(=O)c2ccccc2)c(C#N)c2nc3ccccc3nc21 [SMR000060333]
35 | 31.4 | O=C(Nc1ccc2nc(-c3ccco3)c(-c3ccco3)nc2c1)N1CCCCCC1
36 | 21.2 | N#Cc1c(N2CCCC2)nc(N)c2c(N)nc(N3CCCC3)cc12 [SMR000061605]
37 | 18.2 | CCOC(=O)c1ccc2c(c1)C1C=CCC1C(C(=O)O)N2 (stereo not drawn) [MLS-0025126.0001]
38 | 15.9 | Cc1ccc2c(c1C)NC(C(=O)O)C1CC=CC21 (stereo not drawn)
39 | 14.8 | COc1ccc(Br)cc1C=c1sc2nc(-c3ccco3)nn2c1=O [5-[(5-bromanyl-2-methoxy-phenyl)methylidene]-2-(furan-2-yl)-[1,3]thiazolo[3,2-b][1,2,4]triazol-6-one]
40 | 13.7 | Cc1c(N=c2c(=O)c3ccccc3c2=O)c(=O)n(-c2ccccc2)n1C [MLS000105950]
41 | 12.6 | O=C(NC1(O)C(=O)c2ccccc2C1=O)c1ccccc1 [N-(2-hydroxy-1,3-dioxo-2-indenyl)benzamide]
42 | 9.6 | O=C(OC1CCCCC1)c1ccc2c(c1)C1C=CCC1C(C(=O)O)N2 (stereo not drawn) [SMR000019385]
43 | 4.99 | N#Cc1c(N)sc(=S)c2c1CCN(Cc1ccccc1)C2 [3-Amino-7-benzyl-1-thioxo-5,6,7,8-tetrahydro-1H-thiopyrano[3,4-c]pyridine-4-carbonitrile]
